Assay results as given in ChEMBL document CHEMBL5291721, “A preclinical secondary pharmacology resource illuminates target-adverse drug reaction associations of marketed drugs” (Nat Commun, 2023).

Key:
Endothelin-1 receptor = target: T1, Endothelin-1 receptor (Homo sapiens, UniProt P25101)
T1 sequence (P25101 whole entry): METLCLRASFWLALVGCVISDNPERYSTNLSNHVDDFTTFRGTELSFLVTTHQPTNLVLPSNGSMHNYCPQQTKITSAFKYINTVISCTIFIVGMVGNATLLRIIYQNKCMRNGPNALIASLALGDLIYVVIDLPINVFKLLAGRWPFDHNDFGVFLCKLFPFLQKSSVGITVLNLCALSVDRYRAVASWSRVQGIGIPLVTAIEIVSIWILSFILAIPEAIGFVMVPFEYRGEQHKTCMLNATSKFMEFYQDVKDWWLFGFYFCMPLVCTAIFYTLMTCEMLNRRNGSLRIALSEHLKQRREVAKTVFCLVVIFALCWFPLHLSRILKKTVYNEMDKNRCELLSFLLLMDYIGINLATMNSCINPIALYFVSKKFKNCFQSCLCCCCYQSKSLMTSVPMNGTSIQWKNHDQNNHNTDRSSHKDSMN

[1] = target: T2, Neuropeptide Y receptor type 1 (Homo sapiens, UniProt P25929)
T2 sequence (P25929 whole entry): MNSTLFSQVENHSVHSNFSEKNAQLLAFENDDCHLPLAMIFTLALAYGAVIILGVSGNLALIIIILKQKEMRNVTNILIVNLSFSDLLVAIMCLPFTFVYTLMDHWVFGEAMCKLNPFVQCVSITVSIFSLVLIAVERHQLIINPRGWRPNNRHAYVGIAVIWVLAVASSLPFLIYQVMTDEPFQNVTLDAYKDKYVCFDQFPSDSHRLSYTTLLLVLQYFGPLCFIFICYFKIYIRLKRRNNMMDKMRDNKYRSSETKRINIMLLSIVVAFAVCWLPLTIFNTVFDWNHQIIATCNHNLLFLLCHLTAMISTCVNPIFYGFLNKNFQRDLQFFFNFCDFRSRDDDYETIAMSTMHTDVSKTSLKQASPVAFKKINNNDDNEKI

[2] = target: Gamma-aminobutyric acid receptor subunit alpha-1 (Rattus norvegicus, UniProt P62813)
[3] = target: Growth hormone secretagogue receptor type 1 (Homo sapiens, UniProt Q92847)
[4] = target: T3, Muscarinic acetylcholine receptor M2 (Homo sapiens, UniProt P08172); assay type: functional, cell-based
T3 sequence (P08172 whole entry): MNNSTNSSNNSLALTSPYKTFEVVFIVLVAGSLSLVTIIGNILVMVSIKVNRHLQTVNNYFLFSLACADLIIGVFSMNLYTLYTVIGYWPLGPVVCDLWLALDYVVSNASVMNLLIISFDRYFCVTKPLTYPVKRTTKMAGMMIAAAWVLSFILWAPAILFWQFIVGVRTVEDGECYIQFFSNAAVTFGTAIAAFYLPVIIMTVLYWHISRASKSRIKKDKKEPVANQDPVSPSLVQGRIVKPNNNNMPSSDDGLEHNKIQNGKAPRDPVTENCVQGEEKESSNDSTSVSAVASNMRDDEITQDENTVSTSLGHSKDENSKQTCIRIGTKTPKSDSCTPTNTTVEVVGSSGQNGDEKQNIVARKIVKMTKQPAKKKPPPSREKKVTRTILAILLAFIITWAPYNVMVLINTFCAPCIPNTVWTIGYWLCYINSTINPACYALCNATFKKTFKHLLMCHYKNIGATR

Adenosine receptor A1 = target: T4, Adenosine receptor A1 (Homo sapiens, UniProt P30542)
T4 sequence (P30542 whole entry): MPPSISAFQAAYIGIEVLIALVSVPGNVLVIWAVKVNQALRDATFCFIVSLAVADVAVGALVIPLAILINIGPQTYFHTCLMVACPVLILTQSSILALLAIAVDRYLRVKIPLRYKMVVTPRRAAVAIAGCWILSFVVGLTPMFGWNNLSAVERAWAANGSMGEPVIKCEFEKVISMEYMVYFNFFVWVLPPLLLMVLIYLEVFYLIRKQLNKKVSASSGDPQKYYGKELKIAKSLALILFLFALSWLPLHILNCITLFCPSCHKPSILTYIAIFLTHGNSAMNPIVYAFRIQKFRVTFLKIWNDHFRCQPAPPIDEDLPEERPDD

Mu-type opioid receptor = Mu-type opioid receptor (Homo sapiens, UniProt P35372)
Androgen receptor = target: T5, Androgen receptor (Homo sapiens, UniProt P10275)
T5 sequence (P10275 whole entry): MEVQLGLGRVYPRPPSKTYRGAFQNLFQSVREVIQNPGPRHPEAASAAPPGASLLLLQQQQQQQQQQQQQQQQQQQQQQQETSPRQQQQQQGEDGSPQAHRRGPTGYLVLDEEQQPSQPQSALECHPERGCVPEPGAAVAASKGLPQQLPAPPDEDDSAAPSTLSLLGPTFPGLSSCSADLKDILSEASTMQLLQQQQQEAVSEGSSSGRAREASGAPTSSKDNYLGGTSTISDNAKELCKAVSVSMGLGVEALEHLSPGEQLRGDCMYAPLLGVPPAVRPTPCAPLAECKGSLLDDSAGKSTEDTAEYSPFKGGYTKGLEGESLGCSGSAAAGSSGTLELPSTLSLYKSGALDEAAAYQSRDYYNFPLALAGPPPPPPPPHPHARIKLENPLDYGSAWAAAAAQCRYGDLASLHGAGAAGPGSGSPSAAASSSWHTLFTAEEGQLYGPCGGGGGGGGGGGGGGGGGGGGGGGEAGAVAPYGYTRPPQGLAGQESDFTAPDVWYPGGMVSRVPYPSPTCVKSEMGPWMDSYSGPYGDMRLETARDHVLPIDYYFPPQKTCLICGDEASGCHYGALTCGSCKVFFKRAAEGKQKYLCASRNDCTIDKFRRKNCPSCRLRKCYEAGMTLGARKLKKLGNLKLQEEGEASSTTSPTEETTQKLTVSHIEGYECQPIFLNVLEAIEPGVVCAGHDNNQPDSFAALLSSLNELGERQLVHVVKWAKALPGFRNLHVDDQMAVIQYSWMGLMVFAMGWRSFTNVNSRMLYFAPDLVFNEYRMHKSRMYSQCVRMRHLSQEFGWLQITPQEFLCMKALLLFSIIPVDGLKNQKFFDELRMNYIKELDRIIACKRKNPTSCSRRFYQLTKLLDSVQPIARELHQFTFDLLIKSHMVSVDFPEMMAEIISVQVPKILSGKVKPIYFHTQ
Also: assay procedure not described here.

Sequence of Mu-type opioid receptor (P35372 whole entry): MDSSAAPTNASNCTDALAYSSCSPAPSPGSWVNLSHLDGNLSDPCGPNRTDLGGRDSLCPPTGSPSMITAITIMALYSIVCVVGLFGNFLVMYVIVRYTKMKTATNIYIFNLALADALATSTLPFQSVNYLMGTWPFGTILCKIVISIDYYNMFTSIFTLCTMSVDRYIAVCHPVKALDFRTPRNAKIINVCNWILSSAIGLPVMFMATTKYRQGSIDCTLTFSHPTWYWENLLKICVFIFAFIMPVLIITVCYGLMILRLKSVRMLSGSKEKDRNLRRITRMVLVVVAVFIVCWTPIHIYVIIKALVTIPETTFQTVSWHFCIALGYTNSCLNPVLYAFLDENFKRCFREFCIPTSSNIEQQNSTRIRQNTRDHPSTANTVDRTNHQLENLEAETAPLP
Sequence of Gamma-aminobutyric acid receptor subunit alpha-1 (P62813 whole entry): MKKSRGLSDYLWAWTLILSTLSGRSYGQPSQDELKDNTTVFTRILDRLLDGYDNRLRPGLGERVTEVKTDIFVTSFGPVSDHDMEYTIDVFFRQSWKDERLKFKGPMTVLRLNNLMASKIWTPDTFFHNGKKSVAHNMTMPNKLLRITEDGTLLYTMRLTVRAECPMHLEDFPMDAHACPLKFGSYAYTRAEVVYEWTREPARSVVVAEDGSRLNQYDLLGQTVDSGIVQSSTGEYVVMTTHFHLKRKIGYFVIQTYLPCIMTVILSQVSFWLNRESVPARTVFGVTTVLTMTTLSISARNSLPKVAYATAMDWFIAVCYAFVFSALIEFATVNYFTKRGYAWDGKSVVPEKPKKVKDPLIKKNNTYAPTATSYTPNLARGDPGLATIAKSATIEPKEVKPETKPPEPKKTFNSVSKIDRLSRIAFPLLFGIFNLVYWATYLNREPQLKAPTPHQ
Sequence of Growth hormone secretagogue receptor type 1 (Q92847 whole entry): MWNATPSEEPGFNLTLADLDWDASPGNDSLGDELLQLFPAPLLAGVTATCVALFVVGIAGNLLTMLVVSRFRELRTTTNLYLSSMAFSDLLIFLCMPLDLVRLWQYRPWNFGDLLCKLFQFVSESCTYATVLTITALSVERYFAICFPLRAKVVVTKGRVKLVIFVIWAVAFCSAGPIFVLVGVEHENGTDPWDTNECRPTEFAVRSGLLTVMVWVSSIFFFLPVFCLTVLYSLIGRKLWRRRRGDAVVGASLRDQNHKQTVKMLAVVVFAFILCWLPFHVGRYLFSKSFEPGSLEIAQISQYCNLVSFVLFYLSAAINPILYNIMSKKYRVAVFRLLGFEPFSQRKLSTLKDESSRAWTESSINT

## HYDROXOCOBALAMIN
Endothelin-1 receptor
  AC50: > 30 µM
[1]
  AC50: > 30 µM
[2]
  AC50: > 30 µM
[3]
  AC50: > 30 µM
[4]
  AC50: > 30 µM

## Nc1ccc(S(N)(=O)=O)cc1 [SULFANILAMIDE]
Adenosine receptor A1
  AC50: > 30 µM

## CN(C)c1ccc(C(=C2C=CC(=[N+](C)C)C=C2)c2ccc(N(C)C)cc2)cc1 [GENTIAN VIOLET]
Mu-type opioid receptor
  AC50: 3.9 µM
Androgen receptor
  AC50: > 30 µM
